The text below walks through data of patent US20150216182A1, “COMPOSITIONS AND METHODS OF THE ATTRACTION AND REPULSION OF INSECTS” (Olfactor Laboratories, Inc., priority 2012, published 2015).

The test system of one test is female mosquitoes. Put plainly: whole plant or invertebrate. The settings on record: 2 h, read-out: % mortality with 0.2 mg/ml.
For the molecule `O=Cc1ccccc1O` [OLI0116, Salicylaldehyde], the mortality at 200 µg/mL worked out at 0%.
Same read-out and setting: as for `O=C(C=Cc1ccccc1)OCCc1ccccc1` [OLI0103, phenethyl cinnamate], the figure is 5%; as for `CC(C)C(=O)OCC=Cc1ccccc1` [OLI0108, cinnamyl isobutyrate], 10%.

The same test, now with this note: 2 h, read-out: % mortality with 2 mg/ml.
For `O=Cc1ccccc1O` [OLI0116, Salicylaldehyde], the mortality at 2000 µg/mL was found to be 0%.
For the molecule `O=C(C=Cc1ccccc1)OCCc1ccccc1` [OLI0103, phenethyl cinnamate], the mortality at 2000 µg/mL was 25%.
Consider `CC(C)C(=O)OCC=Cc1ccccc1` [OLI0108, cinnamyl isobutyrate], for which the mortality at 2000 µg/mL was 100%.

The test system of another test is larvae. Put plainly: larvicidal activity assay. The format is in vivo. The note with it: 0.25% compound, 24 hour exposure, dead larvae / total larvae. The method, then:
A 6-well plate (Corning Life Sciences, Tewksbury, Mass.) is used to test a compound's larvicidal activity. […] After a 24 hour exposure, the number of dead larvae are counted and recorded.
The results are presented in Table 17 as % lethality (the number of dead larvae divided by the total number of larvae).
For Ultrazur [OLI0118], the “% Lethality with 0.25% compound conc.” value is listed as 100% lethal.

Still in this test, the particulars now being: 0.25% compound, 24 hour exposure, dead larvae / total larvae; read-out: % Lethality with 0.25% compound conc.
For `O=C(C=Cc1ccccc1)OCCc1ccccc1` [OLI0103, phenethyl cinnamate], the pest or weed control at 0.25 % was 0%.
Still for that read-out and setting: with `CC(C)C(=O)OCC=Cc1ccccc1` [OLI0117, cinnamyl isobutyrate] the figure was 100%.

The test is the same for the next values; noted with them: 100 ppm compound, 24 hour exposure, dead larvae / total larvae.
For the molecule Ultrazur [OLI0118], the “% Lethality at 100 ppm” value amounted to 0% lethal.

Still in this test, the particulars now being: 100 ppm compound, 24 hour exposure, dead larvae / total larvae; read-out: % Lethality at 100 ppm.
Consider `O=C(C=Cc1ccccc1)OCCc1ccccc1` [OLI0103, phenethyl cinnamate], for which the pest or weed control at 100 ppm was 0%.
For the molecule `CC(C)C(=O)OCC=Cc1ccccc1` [OLI0117, cinnamyl isobutyrate], the pest or weed control at 100 ppm came to 0%.

A further test has as its system cpA neurons. Put plainly: extracellular single-sensillum electrophysiology: activation of cpA neuronal activity. The settings on record: Table 6; single compounds; increase over baseline cpA neuronal activity.
For the molecule `CC(C)=C1CC[C@@H](C)CC1=O` [OLI0064, R-+ pulegone], the Class entry is “Mild Activator (mild activators yield an increase in neuronal activity that is between 20 and 40 spk/sec over baseline neuronal activity)”.
In the case of `CCCC(=O)CCC` [OLI0050, heptanone-4], the Class entry was “Mild Activator (mild activators yield an increase in neuronal activity that is between 20 and 40 spk/sec over baseline neuronal activity)”.
Still for that read-out and setting: with `CCCC(=O)CC` [OLI0035, 3-hexanone] the entry was “Mild Activator (mild activators yield an increase in neuronal activity that is between 20 and 40 spk/sec over baseline neuronal activity)”.
As for `CC(=O)OCC=C(C)C` [OLI0062, prenylacetate], the Class entry is “Mild Activator (mild activators yield an increase in neuronal activity that is between 20 and 40 spk/sec over baseline neuronal activity)”.
On the same count and under the same terms, as for `CCOCc1ccco1` [OLI0048, furfurylethylether], the entry is “Mild Activator (mild activators yield an increase in neuronal activity that is between 20 and 40 spk/sec over baseline neuronal activity)”.
Same read-out and setting: with `CCCCCC=O` [OLI0051, hexanal] the entry was “Mild Activator (mild activators yield an increase in neuronal activity that is between 20 and 40 spk/sec over baseline neuronal activity)”.
Consider `CCC(=O)OCC(C)C` [OLI0054, isobutyl propionate], for which the Class entry is “Mild Activator (mild activators yield an increase in neuronal activity that is between 20 and 40 spk/sec over baseline neuronal activity)”.
The same measure, in the same setting: with `CCOC(=O)C(C)C` [OLI0045, ethylisobutyrate] the entry was “Mild Activator (mild activators yield an increase in neuronal activity that is between 20 and 40 spk/sec over baseline neuronal activity)”; with `COC(=O)CCC(=O)OC` [OLI0040, dimethyl succinate], “Mild Activator (mild activators yield an increase in neuronal activity that is between 20 and 40 spk/sec over baseline neuronal activity)”.
Same read-out and setting: as for `C=CC(=O)CC` [OLI0023, ethylvinylketone], the entry is “Moderate Activator (Moderate activators yield an increase in neuronal activity that is between 40 and 60 spk/sec over baseline neuronal activity)”.
Consider `CC(=O)OCC(C)C` [OLI0053, isobutyl acetate], for which the Class result was “Mild Activator (mild activators yield an increase in neuronal activity that is between 20 and 40 spk/sec over baseline neuronal activity)”.
Same read-out and setting: as for `Cc1cccc(C=O)c1` [OLI0060, m-tolualdehyde], the entry is “Mild Activator (mild activators yield an increase in neuronal activity that is between 20 and 40 spk/sec over baseline neuronal activity)”.
On to `CCCC(=O)OC(C)C` [OLI0056, isopropyl butyrate], for which the Class entry is “Mild Activator (mild activators yield an increase in neuronal activity that is between 20 and 40 spk/sec over baseline neuronal activity)”.
Still for that read-out and setting: with `CCOC=O` [OLI0044, ethylformate] the entry was “Mild Activator (mild activators yield an increase in neuronal activity that is between 20 and 40 spk/sec over baseline neuronal activity)”.
Same read-out and setting: with “dipropylenglykol-monomethyl ether [OLI0041]” the entry was “Mild Activator (mild activators yield an increase in neuronal activity that is between 20 and 40 spk/sec over baseline neuronal activity)”; with “ethyl-2,3,5(6)-dimethyl pyrazine [OLI0043]”, “Mild Activator (mild activators yield an increase in neuronal activity that is between 20 and 40 spk/sec over baseline neuronal activity)”; with `C/C=C(\C)C(=O)OC(C)C` [OLI0057, isopropyl tiglate], “Mild Activator (mild activators yield an increase in neuronal activity that is between 20 and 40 spk/sec over baseline neuronal activity)”.
Same read-out and setting: as for `CC(=O)c1cnccn1` [OLI0038, acetyl-2-pyrazine], the entry is “Mild Activator (mild activators yield an increase in neuronal activity that is between 20 and 40 spk/sec over baseline neuronal activity)”; as for `CC1=CC(=O)CC(C)(C)C1=O` [OLI0037, 4-oxoisophorone], “Mild Activator (mild activators yield an increase in neuronal activity that is between 20 and 40 spk/sec over baseline neuronal activity)”.
Regarding `CCCCCCC=O` [OLI0049, heptaldehyde], the Class entry was “Mild Activator (mild activators yield an increase in neuronal activity that is between 20 and 40 spk/sec over baseline neuronal activity)”.
On the same count and under the same terms, as for `CCOC(=O)CCC(C)=O` [OLI0047, ethyllevulinate], the entry is “Mild Activator (mild activators yield an increase in neuronal activity that is between 20 and 40 spk/sec over baseline neuronal activity)”.
On the same count and under the same terms, with `CCOC(=O)CC(C)C` [OLI0046, ethylisovalerate] the entry was “Mild Activator (mild activators yield an increase in neuronal activity that is between 20 and 40 spk/sec over baseline neuronal activity)”.
Same read-out and setting: with `CCc1ccc(C=O)cc1` [OLI0036, 4-ethylbenzaldehyde] the entry was “Mild Activator (mild activators yield an increase in neuronal activity that is between 20 and 40 spk/sec over baseline neuronal activity)”.
For the molecule `COc1cc(C)ccc1O` [OLI0033, 2-methoxy-4-methylphenol], the Class result was “Mild Activator (mild activators yield an increase in neuronal activity that is between 20 and 40 spk/sec over baseline neuronal activity)”.
Still for that read-out and setting: with `COC(=O)CC(C)C` [OLI0058, methyl isovalerate] the entry was “Mild Activator (mild activators yield an increase in neuronal activity that is between 20 and 40 spk/sec over baseline neuronal activity)”.
As to `CCCC(=O)OC(C)C(C)=O` (stereo not drawn) [OLI0039, butan-3-one-2yl butanoate], the Class entry was “Mild Activator (mild activators yield an increase in neuronal activity that is between 20 and 40 spk/sec over baseline neuronal activity)”.
On the same count and under the same terms, as for `CC(C=O)c1ccccc1` (stereo not drawn) [OLI0034, 2-phenylpropionaldehyde], the entry is “Mild Activator (mild activators yield an increase in neuronal activity that is between 20 and 40 spk/sec over baseline neuronal activity)”; as for `CC1=CC(C)C(C=O)CC1` (stereo not drawn) [OLI0031, 2,4-dimethyl-3-cyclohexene-carboxaldehyde], “Mild Activator (mild activators yield an increase in neuronal activity that is between 20 and 40 spk/sec over baseline neuronal activity)”; as for `C/C=C/C(=O)OCC(C)C` [OLI0055, isobutyl trans-2-butenoate], “Mild Activator (mild activators yield an increase in neuronal activity that is between 20 and 40 spk/sec over baseline neuronal activity)”.
For the molecule `COc1ccccc1C=O` [OLI0061, o-anisaldehyde], the Class result is “Mild Activator (mild activators yield an increase in neuronal activity that is between 20 and 40 spk/sec over baseline neuronal activity)”.
